Assay results taken from patent US8278311B2, “Substituted pyrimidine derivatives” (Abbott Laboratories, priority 2008, dated 2012).
Like-named read-outs stand apart in the source and are kept apart here.

Assays:
histamine H4 receptor [1] = target: T1, histamine H4 receptor (Homo sapiens, UniProt Q9H3N8); experiment: in vitro assay of histamine H4 activity using FLIPR-Ca+2 flux; assay type: cell-based; conditions: HEK-293 cells stably expressing histamine H4 receptor and Gαqi5, Fluo-4; Kb for antagonists and inverse agonists, EC50 for partial agonists
T1 construct: expressed in transfected cells
Description: There are many methods available to show the effectiveness of compounds as histamine H4 receptor ligands. Histamine H4 receptors from mammalian species have been cloned. Methods to clone, express, and assess the potency and functional activity of such cloned genes are well known to those skilled in the art of molecular biology. Examples of methods of cloning and expressing histamine H4 receptors, and of assessing the potency and functional activity are described in Nguyen, et al. Molecular Pharmacology (2001) vol. 59 pp. 427-433; Zhu, et al. Molecular Pharmacology (2001) vol. 59 pp. 434-441; Coge, et al., Biochemical and Biophysical Research Communications (2001) vol. 284, pp. 301-309; Liu, et al. Molecular Pharmacology (2001) vol. 59 pp. 420-426; Liu, et al. Journal of Pharmacology and Experimental Therapeutics (2001) v. 299, pp. 121-130; and Thurmond, et al. Journal of Pharmacology and Experimental Therapeutics (2004) v. 309, pp. 404-413. In the present case, to determine the potency and effectiveness of representative compounds of this invention as histamine-H4 receptor ligands (H4 receptor ligands), the following tests were conducted according to previously described methods (see Esbenshade, et al., Biochemical Pharmacology (2004), vol. 68, pp. 933-945, and in Krueger, et al., Journal of Pharmacology and Experimental Therapeutics (2005) v. 314, pp. 271-281): histamine H4 receptors were cloned and stably expressed in HEK-293 (human embryonic kidney) cells coexpressing a Gαqi5. Before testing, cells are loaded with a Ca+^2 sensitive fluorescent dye, in this case Fluo-4 (Invitrogen, Carlsbad, Calif.). In the case of partial agonist or agonist ligands, addition of compound to the cells leads to the increase in intracellular Ca^+2 which is detected by FLIPR (Fluorescence Imaging Plate Reader; Molecular Devices, Sunnyvale, Calif.) technology. In a similar manner, compounds that are antagonists or inverse agonists, block the increase in fluorescence induced by the full histamine H4 agonist histamine, and partial agonists reduce the amount of fluorescence induced by the full histamine H4 agonist histamine. The fluorescence intensities measured before addition of the test compound are subtracted from the fluorescence intensities at later time points. Peak response values determined at each concentration of ligand are expressed as a percentage of the response obtained with the full agonist histamine. Concentration versus response data are analyzed to obtain compound potency as Kb values for antagonists and inverse agonists and as EC50 values for partial agonists.

histamine H4 receptor [2] = target: T1, histamine H4 receptor; experiment: 3H-histamine competition binding assay
Description: The potency of compounds of the invention in displacing ^3H-histamine in competition binding assays is assessed by methods described in Esbenshade, et al., Biochemical Pharmacology (2004), vol. 68, pp. 933-945. In this assay, membranes were prepared from HEK-293 cells transiently transfected with the pClNeo expression vector harboring the histamine H4 receptor by homogenization of the cells on ice in TE buffer (50 mM Tris-HCl buffer, pH 7.4, containing 5 mM EDTA), 1 mM benzamidine, 2 μg/mL aprotinin, 1 μg/mL leupeptin, and 1 μg/mL pepstatin. The homogenate was centrifuged at 40,000 g for 20 minutes at 4° C. This step was repeated, and the resulting pellet was resuspended in TE buffer. Aliquots were frozen at −70° C. until needed. On the day of assay, membranes were thawed and diluted with TE buffer. Competition radioligand binding assays were performed with increasing concentrations of test compound in the presence of [^3H]-histamine incubated at 25° C. for 1 hour in a total volume of 0.5 mL of 50 mM Tris, 5 mM EDTA, pH 7.4. All binding reactions were terminated by filtration under vacuum onto polyethylenimine (0.3%) presoaked Unifilters (PerkinElmer Life Sciences) or Whatman GF/B filters (Whatman, Clifton, N.J.) followed by three brief washes with 4 mL of ice-cold TE buffer. Bound radiolabel was determined by liquid scintillation counting. For all of the radioligand competition binding assays, IC50 values and Hill slopes were determined by Hill transformation of the data and Ki values were determined by the Cheng-Prusoff equation. The following table of representative histamine H4 receptor ligands is provided, along with potency values: […]

[3] = membranes of HEK-293 cells transiently transfected with histamine H4 receptor, [3H]-histamine, 25° C., 1 hour, read-out: Binding assay Potency (Ki)

Compound	Potency (histamine H4 receptor [1])	Ki (histamine H4 receptor [2]; [3])	Ki (histamine H4 receptor [2])
Nc1nc2c(c(N3CCNCC3)n1)CC[C@@H]1CCCC[C@@H]21 (relative stereo) [Example 12, trans-4-piperazin-1-yl-5,6,6a,7,8,9,10,10a-octahydrobenzo[h]quinazolin-2-amine]	6.9 nM	2 nM	
Nc1nc2c(c(N3CCNCC3)n1)CC[C@@H]1CCCC[C@H]21 (relative stereo) [Example 13, cis-4-piperazin-1-yl-5,6,6a,7,8,9,10,10a-octahydrobenzo[h]quinazolin-2-amine]	3.3 nM	1.8 nM	
Nc1nc2c(c(N3C[C@H]4CCCN[C@H]4C3)n1)CC[C@@H]1CCCC[C@H]21 (relative stereo) [Example 21, cis-4-[cis-octahydro-6H-pyrrolo[3,4-b]pyridin-6-yl]-5,6,6a,7,8,9,10,10a-octahydrobenzo[h]quinazolin-2-amine]	8.3 nM		
CN[C@@H]1CCN(c2nc(N)nc3c2CCC2=C3C3CCCCC3O2)C1 (stereo partly drawn) [Example 2, 4-[(3R)-3-(methylamino)pyrrolidin-1-yl]-5,6,7a,8,9,10,11,11a-octahydro[1]benzofuro[2,3-h]quinazolin-2-amine]	5.9 nM	3.3 nM	
CN1CCCN(c2nc(N)nc3c2CCC2=C3C3CCCCC3O2)CC1 (stereo not shown) [Example 5, 4-(4-methyl-1,4-diazepan-1-yl)-5,6,7a,8,9,10,11,11a-octahydro[1]benzofuro[2,3-h]quinazolin-2-amine]	16 nM		
CN1CCN(c2nc(N)nc3c2CCC2=C3C3CCCCC3O2)CC1 (stereo not shown) [Example 6, 4-(4-methylpiperazin-1-yl)-5,6,7a,8,9,10,11,11a-octahydro[1]benzofuro[2,3-h]quinazolin-2-amine]	25 nM		
Nc1nc(N2CC[C@@H](N)C2)c2ccc3c(c2n1)C1CCCCC1O3 (stereo partly drawn) [Example 7, 4-[(3R)-3-aminopyrrolidin-1-yl]-7a,8,9,10,11,11a-hexahydro[1]benzofuro[2,3-h]quinazolin-2-amine]	4.1 nM	12.6 nM	
Nc1nc(N2C[C@H]3CNC[C@H]32)c2ccc3c(c2n1)C1CCCCC1O3 (stereo partly drawn) [Example 8, 4-[(1R,5S)-3,6-diazabicyclo[3.2.0]hept-6-yl]-7a,8,9,10,11,11a-hexahydro[1]benzofuro[2,3-h]quinazolin-2-amine]	61.7 nM		
Nc1nc2c(c(N3CCCNCC3)n1)CCC1=C2C2CCCCC2O1 (stereo not shown) [Example 9, 4-(1,4-diazepan-1-yl)-5,6,7a8,9,10,11,11a-octahydro[1]benzofuro[2,3-h]quinazolin-2-amine]	16 nM		
CC(C)N1CCCN(c2nc(N)nc3c2CCC2=C3C3CCCCC3O2)CC1 (stereo not shown) [Example 10, 4-(4-isopropyl-1,4-diazepan-1-yl)-5,6,7a,8,9,10,11,11a-octahydro[1]benzofuro[2,3-h]quinazolin-2-amine]	1260 nM		
Nc1nc2c(c(N3CCCN(C4CCC4)CC3)n1)CCC1=C2C2CCCCC2O1 (stereo not shown) [Example 11, 4-(4-cyclobutyl-1,4-diazepan-1-yl)-5,6,7a,8,9,10,11,11a-octahydro[1]benzofuro[2,3-h]quinazolin-2-amine]	2000 nM		
Nc1nc2c(c(N3CC4CCCNC4C3)n1)CCC1CCCCC21 (stereo not drawn) [Example 18, trans-4-[cis-octahydro-6H-pyrrolo[3,4-b]pyridin-6-yl]-5,6,6a7,8,9,10,10a-octahydrobenzo[h]quinazolin-2-amine]	4.9 nM		2.6 nM

Further lines, with some results ahead:

Potency (histamine H4 receptor [1])	Ki (histamine H4 receptor [2]; [3])	Compound	Ki (histamine H4 receptor [2])
1.4 nM	2.6 nM	CN[C@@H]1CCN(c2nc(N)nc3c2CC[C@@H]2CCCC[C@@H]32)C1 (mixture of isomers) [Example 16, trans-4-[(3R)-3-(methylamino)pyrrolidin-1-yl]-5,6,6a,7,8,9,10,10a-octahydrobenzo[h]quinazolin-2-amine]	
1.2 nM		Nc1nc2c(c(N3CC[C@@H](N)C3)n1)CC[C@@H]1CCCC[C@@H]21 (mixture of isomers) [Example 17, trans-4-[(3R)-3-aminopyrrolidin-1-yl]-5,6,6a,7,8,9,10,10a-octahydrobenzo[h]quinazolin-2-amine]	
1.6 nM		CN[C@@H]1CCN(c2nc(N)nc3c2CC[C@@H]2CCCC[C@H]32)C1 (mixture of isomers) [Example 19, cis-4-[(3R)-3-(methylamino)pyrrolidin-1-yl]-5,6,6a,7,8,9,10,10a-octahydrobenzo[h]quinazolin-2-amine]	
1.4 nM		Nc1nc2c(c(N3CC[C@@H](N)C3)n1)CC[C@@H]1CCCC[C@H]21 (mixture of isomers) [Example 20, cis-4-[(3R)-3-aminopyrrolidin-1-yl]-5,6,6a,7,8,9,10,10a-octahydrobenzo[h]quinazolin-2-amine]	
1.5 nM	0.9 nM	CNC1CN(c2nc(N)nc3c2CC[C@@H]2CCCC[C@@H]32)C1.O=C(O)C(F)(F)F.O=C(O)C(F)(F)F (relative stereo) [Example 14, trans-4-[3-(methylamino)azetidin-1-yl]-5,6,6a,7,8,9,10,10a-octahydrobenzo[h]quinazolin-2-amine bis(trifluoroacetate)]	
3.2 nM	1 nM	CCNC1CN(c2nc(N)nc3c2CC[C@@H]2CCCC[C@@H]32)C1.O=C(O)C(F)(F)F.O=C(O)C(F)(F)F (relative stereo) [Example 15, trans-4-[3-(ethylamino)azetidin-1-yl]-5,6,6a,7,8,9,10,10a-octahydrobenzo[h]quinazolin-2-amine bis(trifluoroacetate)]	
3.0 nM		CNC1CN(c2nc(N)nc3c2CC[C@@H]2CCCC[C@H]32)C1 (relative stereo) [Example 22, cis-4-[3-(methylamino)azetidin-1-yl]-5,6,6a,7,8,9,10,10a-octahydrobenzo[h]quinazolin-2-amine]	
3.0 nM		CCNC1CN(c2nc(N)nc3c2CC[C@@H]2CCCC[C@H]32)C1 (relative stereo) [Example 23, cis-4-[3-(ethylamino)azetidin-1-yl]-5,6,6a,7,8,9,10,10a-octahydrobenzo[h]quinazolin-2-amine]	
91.2 nM		Nc1nc2c(c(N3C[C@H]4CCCN[C@H]4C3)n1)CCCC1C3C=CC(CC3)C21 (relative stereo) [Example 24, 4-cis-octahydro-6H-pyrrolo[3,4-b]pyridin-6-yl-6,7,7a,8,11,11a-hexahydro-5H-8,11-ethanobenzo[6,7]cyclohepta[1,2-d]pyrimidin-2-amine]	
89.1 nM		Nc1nc2c(c(N3C[C@H]4CCCN[C@H]4C3)n1)CCCC1C3CCC(CC3)C21 (relative stereo) [Example 27, 4-cis-octahydro-6H-pyrrolo[3,4-b]pyridin-6-yl-6,7,7a,8,9,10,11,11a-octahydro-5H-8,11-ethanobenzo[6,7]cyclohepta[1,2-d]pyrimidin-2-amine]	
60.3 nM		Nc1nc2c(c(N3CCNCC3)n1)CCCC1C3C=CC(CC3)C21 (stereo not shown) [Example 26, 4-piperazin-1-yl-6,7,7a,8,11,11a-hexahydro-5H-8,11-ethanobenzo[6,7]cyclohepta[1,2-d]pyrimidin-2-amine]	
